System: Rabbit polyclonal antibody #10930
Experiment: Specificity of the immunoassay (cross-reactivity of antibody with other antiepileptic drugs)
Type: binding
Details: assayed in duplicate, Cobas Mira
Source text: Antibodies obtained using any of the disclosed techniques are screened or purified not only for their ability to react with gabapentin, but for a low cross-reactivity with potential interfering substances. “Cross-reactivity” may be determined in a quantitative immunoassay by establishing a standard curve using known dilutions of the target analyte, gabapentin. The standard curve is then used to calculate the apparent concentration of the interfering substance present in various known amounts in samples assayed under similar condition. The cross-reactivity is the apparent concentration divided by the actual concentration multiplied by 100. An exemplary immunoassay for determining cross-reactivity is a homogeneous enzyme immunoassay using a wild type G6PDH as described in U.S. Pat. No. 3,817,837 or mutant G6PDH engineered to contain a cysteine per subunit as described in U.S. Pat. Nos. 6,033,890, 6,090,567 and 6,455,288. Furthermore, the cross-reactivity can be determined in the same type of immunoassay in which the antibody will ultimately be used.
The gabapentin antibodies and enzyme conjugates may be advantageously used in a homogeneous assay format to detect gabapentin in samples. An analyzer (instrument) useful to set up the assay is Roche Cobas Mira (Roche Diagnostics). Gabapentin containing sample is incubated with antibody reagent followed by the addition of the enzyme conjugate reagent. The enzyme conjugate activity decreases upon binding to the antibody. The enzyme conjugate, which is not bound to the antibody, catalyzes the oxidation of glucose 6-phosphate (G6P). The oxidation of G6P is coupled with the reduction of NAD^+ to NADH, which can be measured at 340 nm. The change in the absorbance at 340 nm can be measured spectrophotometrically. The gabapentin concentration in a specimen can be measured in terms of G6PDH activity. The increase in the rate at 340 nm is due to the formation of NADH and is proportional to the enzyme conjugate activity. An assay curve is generated (FIG. 6) using gabapentin spiked into negative calibrator matrix. The assay rate increases with increasing the concentration of free drug in the sample.
The specificity of the immunoassay was evaluated by adding potentially crossreactant drugs to human serum and determining the increase in the apparent concentration as a result of the presence of crossreactant. Separate stock solutions of gabapentin were prepared by dissolving the drug in methanol to give a stock solution of 1000 μg/mL. […] Each sample was assayed in duplicate. Testing was performed on the Cobas Mira Analyzer®. The percentage concentration above 5 μg/mL of gabapentin was calculated for each crossreactant.

[1] = AED at 100 μg/mL in human serum

SMILES: NC(=O)N1c2ccccc2C=Cc2ccccc21 [Carbamazepine]
- Percent Increase in Apparent Gabapentin [1]: 0%

SMILES: CC[C@@H](C(N)=O)N1CCCC1=O [Levetiracetam]
- Percent Increase in Apparent Gabapentin [1]: 0%

SMILES: NS(=O)(=O)Cc1noc2ccccc12 [Zonisamide]
- Percent Increase in Apparent Gabapentin (AED at 50 μg/mL in human serum): 0%

SMILES: CCCC(CCC)C(=O)O [Valproic Acid]
- Percent Increase in Apparent Gabapentin [1]: 0%

SMILES: Nc1nnc(-c2cccc(Cl)c2Cl)c(N)n1 [Lamotrigine]
- Percent Increase in Apparent Gabapentin [1]: 0%
